{"source": "patent US10800791B2", "about": "“Triazole ACC inhibitors and uses thereof” (Gilead Apollo, LLC, priority 2015, dated 2020)", "key": {"Botrtyis cinerea (Bc)": {"system": "Botrtyis cinerea (Bc)", "assay": "Growth inhibition assay of fungal pathogens, Bc", "format": "cell-based", "settings": "48 h", "outline": "(§1)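 Spores diluted in 17% V8 liquid media and incubated with compound at final 50, 10, 2 ppm or 2, 0.4, 0.08 ppm (2% DMSO). OD600 plus visual ratings at 24 and 48 hours, blank-subtracted; percent growth inhibition from 48 h readings relative to 2% DMSO control.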"}, "[1]": {"system": "Fusarium moniliforme (Fm)", "assay": "Growth inhibition assay of fungal pathogens, Fm", "format": "cell-based", "settings": "for IC90: Fusarium verticillioides, 48 h, read-out: Concentration at 90% Inhibition Fm", "outline": "as §1"}, "[2]": {"system": "Phytophthora capsici (Pc)", "assay": "Growth inhibition assay of fungal pathogens, Pc", "format": "cell-based", "settings": "48 h", "outline": "as §1"}, "Septoria tritici (St)": {"system": "Septoria tritici (St)", "assay": "Growth inhibition assay of fungal pathogens, St", "format": "cell-based", "settings": "Zymoseptoria tritici, 48 h", "outline": "as §1"}, "[3]": {"system": "Fusarium virguliforme (Fv)", "assay": "Growth inhibition assay of fungal pathogens, Fv", "format": "cell-based", "settings": "48 h", "outline": "as §1"}, "fungal (fACC2)": {"target": "fungal (fACC2) (UniProt Q00955)", "sequence (Q00955 whole entry)": "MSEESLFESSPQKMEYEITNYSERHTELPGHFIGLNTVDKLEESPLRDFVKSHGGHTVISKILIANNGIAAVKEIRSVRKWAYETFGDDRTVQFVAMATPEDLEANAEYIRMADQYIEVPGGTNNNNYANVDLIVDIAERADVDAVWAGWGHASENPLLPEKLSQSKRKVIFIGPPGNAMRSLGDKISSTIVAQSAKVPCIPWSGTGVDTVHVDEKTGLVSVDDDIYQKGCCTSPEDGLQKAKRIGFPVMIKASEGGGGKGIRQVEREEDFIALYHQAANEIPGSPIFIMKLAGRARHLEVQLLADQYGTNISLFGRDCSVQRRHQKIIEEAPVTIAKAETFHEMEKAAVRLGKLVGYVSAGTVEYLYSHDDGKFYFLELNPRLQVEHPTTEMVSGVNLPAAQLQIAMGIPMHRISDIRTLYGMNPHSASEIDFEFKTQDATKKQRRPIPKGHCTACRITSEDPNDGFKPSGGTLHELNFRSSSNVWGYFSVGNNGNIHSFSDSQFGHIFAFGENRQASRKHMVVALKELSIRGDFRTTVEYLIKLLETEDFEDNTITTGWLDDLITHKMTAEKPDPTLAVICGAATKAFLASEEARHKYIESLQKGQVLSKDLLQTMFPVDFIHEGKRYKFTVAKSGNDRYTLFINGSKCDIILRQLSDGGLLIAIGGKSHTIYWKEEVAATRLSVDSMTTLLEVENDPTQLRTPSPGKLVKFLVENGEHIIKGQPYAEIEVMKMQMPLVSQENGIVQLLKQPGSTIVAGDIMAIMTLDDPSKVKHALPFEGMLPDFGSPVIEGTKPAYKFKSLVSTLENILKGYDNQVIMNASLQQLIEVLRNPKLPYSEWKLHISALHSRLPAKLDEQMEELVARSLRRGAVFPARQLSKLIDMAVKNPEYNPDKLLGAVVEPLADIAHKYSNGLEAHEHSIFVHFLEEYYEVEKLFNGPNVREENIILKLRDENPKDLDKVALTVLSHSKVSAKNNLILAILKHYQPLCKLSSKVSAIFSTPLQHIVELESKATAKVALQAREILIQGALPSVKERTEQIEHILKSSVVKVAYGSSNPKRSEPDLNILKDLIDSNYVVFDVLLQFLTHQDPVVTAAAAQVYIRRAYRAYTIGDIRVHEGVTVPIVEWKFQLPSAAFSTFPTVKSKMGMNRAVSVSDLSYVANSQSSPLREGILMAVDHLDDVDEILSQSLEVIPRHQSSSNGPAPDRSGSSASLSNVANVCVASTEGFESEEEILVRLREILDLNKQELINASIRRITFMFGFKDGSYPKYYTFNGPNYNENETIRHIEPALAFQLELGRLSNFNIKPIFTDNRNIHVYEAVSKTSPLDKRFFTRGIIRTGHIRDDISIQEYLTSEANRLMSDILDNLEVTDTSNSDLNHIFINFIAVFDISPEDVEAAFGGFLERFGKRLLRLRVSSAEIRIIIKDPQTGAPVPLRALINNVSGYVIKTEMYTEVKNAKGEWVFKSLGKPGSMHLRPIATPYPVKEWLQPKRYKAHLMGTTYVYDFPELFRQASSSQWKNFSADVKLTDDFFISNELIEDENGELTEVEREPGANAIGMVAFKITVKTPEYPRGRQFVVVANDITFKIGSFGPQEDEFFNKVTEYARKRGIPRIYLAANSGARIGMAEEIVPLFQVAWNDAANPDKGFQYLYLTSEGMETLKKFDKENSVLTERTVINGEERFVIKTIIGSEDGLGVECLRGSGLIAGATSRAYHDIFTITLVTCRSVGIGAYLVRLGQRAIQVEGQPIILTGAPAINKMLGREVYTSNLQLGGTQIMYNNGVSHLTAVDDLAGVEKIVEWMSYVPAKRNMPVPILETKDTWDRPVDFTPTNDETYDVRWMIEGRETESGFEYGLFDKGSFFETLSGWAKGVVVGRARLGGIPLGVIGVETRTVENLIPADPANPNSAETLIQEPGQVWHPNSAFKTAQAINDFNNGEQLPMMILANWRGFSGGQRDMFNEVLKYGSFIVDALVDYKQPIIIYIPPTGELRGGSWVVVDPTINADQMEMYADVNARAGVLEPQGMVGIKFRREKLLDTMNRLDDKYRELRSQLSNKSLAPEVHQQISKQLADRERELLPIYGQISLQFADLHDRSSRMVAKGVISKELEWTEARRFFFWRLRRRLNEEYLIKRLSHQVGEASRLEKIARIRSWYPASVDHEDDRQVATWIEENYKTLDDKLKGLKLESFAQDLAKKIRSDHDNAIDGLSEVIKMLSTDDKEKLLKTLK", "settings": "read-out: fACC2 (in vitro ACC2 Inhibition Assay, IC50), ADP-Glo, 5 nM ACC2, 20 μM ATP, 20 μM acetyl-CoA", "experimental": "An exemplary procedure for the in vitro ACC inhibition assay, which can be used to determine the inhibitory action of compounds of the invention toward either human (hACC2) or fungal (fACC2), follows. The ADP-Glo™ Kinase Assay kit from Promega was used. The ADP-Glo™ Kinase Assay is a luminescent ADP detection assay to measure enzymatic activity by quantifying the amount of ADP produced during an enzyme reaction. The assay is performed in two steps; first, after the enzyme reaction, an equal volume of ADP-Glo™ Reagent is added to terminate the reaction and deplete the remaining ATP. Second, the Kinase Detection Reagent is added to simultaneously convert ADP to ATP and allow the newly synthesized ATP to be measured using a luciferase/luciferin reaction. Luminescence can be correlated to ADP concentrations by using an ATP-to-ADP conversion curve. […] 50 μL of the compound being tested (600 μM in DMSO) was added to a 384-well dilution plate. The compound was diluted 1:3 in succession in DMSO for each row for 11 wells. 0.5 μL ACC2 working solution was added to 384-well white Optiplate assay plate. 0.5 μL diluted compound solution in each column from step 2 was added to assay plate, each row containing 2 replicates. […] The plates were incubated at room temperature for 15 minutes. 5 μL substrate working solution was added to each well to initiate reaction. Final ACC2 reaction concentrations consist of: 5 nM ACC2, 20 μM ATP, 20 μM acetyl-CoA, 12 mM NaHCO3, 0.01% Brij35, 2 mM DTT, 5% DMSO, test compound concentrations: 30 μM, 10 μM, 3.33 μM, 1.11 μM, 0.37 μM, 0.123 μM, 0.0411 μM, 0.0137 μM, 0.00457 μM, 0.00152 μM, and 0.00051 μM. Plates were incubated at room temperature for 60 minutes. 10 μL ADP glo reagent was added. Plates were incubated at room temperature for 40 minutes. 20 μL kinase detection reagent was added. Plates were incubated at room temperature for 40 minutes, and then read on a Perkin Elmer EnVision 2104 plate reader for luminescence as Relative Light Units (RLU).\nData for each concentration, as well as the positive and negative controls were averaged, and the standard deviation calculated. Percent inhibition was calculated by the formula: 100×(average negative control−compound)/(average negative control−average positive control). The IC50 for each compound was calculated by fitting the data with a non-linear regression equation: Y=Bottom+(Top−Bottom)/(1+10 ((Log IC50−X)*HillSlope)), where X is the log of compound concentration and Y is percent inhibition."}, "Diplodia maydis (Dm)": {"system": "Diplodia maydis (Dm)", "assay": "Growth inhibition assay of fungal pathogens, Dm", "format": "cell-based", "settings": "Stenocarpella maydis, 48 h", "outline": "as §1"}, "[4]": {"system": "Collectotrichum graminicola (Cg)", "assay": "Growth inhibition assay of fungal pathogens, Cg", "format": "cell-based", "settings": "48 h", "outline": "as §1"}, "C. parapsilosis": {"system": "C. parapsilosis", "assay": "Antifungal Activity Assay (broth microtiter MIC), C. parapsilosis", "format": "cell-based, Candida parapsilosis", "settings": "Lodderomyces parapsilosis, ATCC22019, 48 h", "outline": "(§2)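 Susceptibility was determined by CLSI M27-A3 broth microdilution in RPMI 1640 buffered with MOPS. Growth inhibition was scored visually after 48 h.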"}, "C. albicans": {"system": "C. albicans", "assay": "Antifungal Activity Assay (broth microtiter MIC), C. albicans", "format": "cell-based, Candida albicans", "settings": "Candida albicans, ATCC90028, 48 h", "outline": "as §2"}, "C. krusei": {"system": "C. krusei", "assay": "Antifungal Activity Assay (broth microtiter MIC), C. krusei", "format": "cell-based, Candida krusei", "settings": "Pichia kudriavzevii, ATCC6258, 48 h", "outline": "as §2"}, "[5]": {"settings": "Fusarium moniliforme, growth inhibition at 48 hours vs 2% DMSO control"}}, "note": "Like-named read-outs stand apart in the source and are kept apart here.", "data": [{"smiles": "COc1ccc(F)cc1[C@H](Cn1c(=O)n(C(C)(C)C(N)=O)c(=O)c2c(C)c(-n3nccn3)sc21)OC(C)C", "note": "[Compound I-2, (R)-2-(1-(2-(5-fluoro-2-methoxyphenyl)-2-isopropoxyethyl)-5-methyl-2,4-dioxo-6-(2H-1,2,3-triazol-2-yl)-1,4-dihydrothieno[2,3-d]pyrimidin-3(2H)-yl)-2-methylpropanamide]", "values": [{"measurement": "IC90", "setting": "Botrtyis cinerea (Bc); Botrtyis cinerea, growth inhibition at 48 hours vs 2% DMSO control, read-out: Concentration at 90% Inhibition Bc", "result": 2, "unit": "µg/mL"}, {"measurement": "IC90", "setting": "Botrtyis cinerea (Bc); Botrtyis cinerea, growth inhibition vs 2% DMSO control at 48 hours, read-out: Concentration at 90% Inhibition Bc", "result": 2, "unit": "µg/mL"}, {"measurement": "IC90", "setting": "[1]; [5]", "result": 0.4, "unit": "µg/mL"}, {"measurement": "IC90", "setting": "[1]; Fusarium moniliforme, growth inhibition vs 2% DMSO control at 48 hours", "result": 0.4, "unit": "µg/mL"}, {"measurement": "IC90", "setting": "[2]; growth inhibition at 48 hours vs 2% DMSO control, read-out: Concentration at 90% Inhibition Pc", "result": "> 50", "unit": "µg/mL"}, {"measurement": "IC90", "setting": "[2]; growth inhibition vs 2% DMSO control at 48 hours, read-out: Concentration at 90% Inhibition Pc", "result": "> 50", "unit": "µg/mL"}, {"measurement": "IC90", "setting": "Septoria tritici (St); Septoria tritici, growth inhibition at 48 hours vs 2% DMSO control, read-out: Concentration at 90% Inhibition St", "result": "> 50", "unit": "µg/mL"}, {"measurement": "IC90", "setting": "Septoria tritici (St); Septoria tritici, growth inhibition vs 2% DMSO control at 48 hours, read-out: Concentration at 90% Inhibition St", "result": "> 50", "unit": "µg/mL"}, {"measurement": "IC90", "setting": "[3]; growth inhibition at 48 hours vs 2% DMSO control, read-out: Concentration at 90% Inhibition Fv", "result": 0.4, "unit": "µg/mL"}, {"measurement": "IC90", "setting": "[3]; growth inhibition vs 2% DMSO control at 48 hours, read-out: Concentration at 90% Inhibition Fv", "result": 0.4, "unit": "µg/mL"}, {"measurement": "IC50", "setting": "fungal (fACC2); Table 2a", "result": "1 to 5", "unit": "nM"}, {"measurement": "IC50", "setting": "fungal (fACC2); Table 2b, additional results", "result": "1 to 5", "unit": "nM"}, {"measurement": "IC90", "setting": "Diplodia maydis (Dm); Diplodia maydis, growth inhibition at 48 hours vs 2% DMSO control, read-out: Concentration at 90% Inhibition Dm", "result": 2, "unit": "µg/mL"}, {"measurement": "IC90", "setting": "Diplodia maydis (Dm); Diplodia maydis, growth inhibition vs 2% DMSO control at 48 hours, read-out: Concentration at 90% Inhibition Dm", "result": 2, "unit": "µg/mL"}, {"measurement": "IC90", "setting": "[4]; Collectotrichum graminicola, growth inhibition at 48 hours vs 2% DMSO control, read-out: Concentration at 90% Inhibition Cg", "result": 2, "unit": "µg/mL"}, {"measurement": "IC90", "setting": "[4]; Collectotrichum graminicola, growth inhibition vs 2% DMSO control at 48 hours, read-out: Concentration at 90% Inhibition Cg", "result": 2, "unit": "µg/mL"}, {"measurement": "MIC", "setting": "C. parapsilosis; Table 3a, ATCC 22019, 3 replicates, MIC recorded at 48 h, read-out: MIC, C. parapsilosis ATCC 22019", "result": "2.1 to 4", "unit": "µg/mL"}, {"measurement": "MIC", "setting": "C. parapsilosis; Table 3b (additional results), ATCC 22019, 3 replicates, MIC recorded at 48 h, read-out: MIC, C. parapsilosis ATCC 22019", "result": "> 4.01", "unit": "µg/mL"}, {"measurement": "MIC", "setting": "C. albicans; Table 3a, ATCC 90028, 3 replicates, MIC recorded at 48 h, read-out: MIC, C. albicans ATCC 90028", "result": "2.1 to 4", "unit": "µg/mL"}, {"measurement": "MIC", "setting": "C. albicans; Table 3b (additional results), ATCC 90028, 3 replicates, MIC recorded at 48 h, read-out: MIC, C. albicans ATCC 90028", "result": "1.01 to 2", "unit": "µg/mL"}, {"measurement": "MIC", "setting": "C. krusei; Table 3a, ATCC 6258, 3 replicates, MIC recorded at 48 h, read-out: MIC, C. krusei ATCC 6258", "result": "0.25 to 1", "unit": "µg/mL"}, {"measurement": "MIC", "setting": "C. krusei; Table 3b (additional results), ATCC 6258, 3 replicates, MIC recorded at 48 h, read-out: MIC, C. krusei ATCC 6258", "result": "0.25 to 1", "unit": "µg/mL"}]}, {"smiles": "CCNC(=O)C(C)(C)n1c(=O)c2c(C)c(-n3nccn3)sc2n(C[C@H](OC(C)C)c2cc(F)ccc2OC)c1=O", "note": "[Compound I-3, (R)—N-ethyl-2-(1-(2-(5-fluoro-2-methoxyphenyl)-2-isopropoxyethyl)-5-methyl-2,4-dioxo-6-(2H-1,2,3-triazol-2-yl)-1,4-dihydrothieno[2,3-d]pyrimidin-3(2H)-yl)-2-methylpropanamide]", "values": [{"measurement": "IC90", "setting": "Botrtyis cinerea (Bc); read-out: Concentration at 90% Inhibition Bc, Botrtyis cinerea, growth inhibition at 48 hours vs 2% DMSO control", "result": 0.4, "unit": "µg/mL"}, {"measurement": "IC90", "setting": "Botrtyis cinerea (Bc); read-out: Concentration at 90% Inhibition Bc, Botrtyis cinerea, growth inhibition vs 2% DMSO control at 48 hours", "result": 0.4, "unit": "µg/mL"}, {"measurement": "Concentration at 90% Inhibition Fm", "setting": "[1]; [5]", "result": "AA (compound concentration of 0.08 ppm at 90% inhibition of fungal pathogens)"}, {"measurement": "IC90", "setting": "[1]", "result": 0.08, "unit": "µg/mL"}, {"measurement": "IC90", "setting": "[2]; read-out: Concentration at 90% Inhibition Pc, Phytophthora capsici, growth inhibition at 48 hours vs 2% DMSO control", "result": "> 50", "unit": "µg/mL"}, {"measurement": "IC90", "setting": "[2]; read-out: Concentration at 90% Inhibition Pc, Phytophthora capsici, growth inhibition vs 2% DMSO control at 48 hours", "result": "> 50", "unit": "µg/mL"}, {"measurement": "IC90", "setting": "Septoria tritici (St); read-out: Concentration at 90% Inhibition St, Septoria tritici, growth inhibition at 48 hours vs 2% DMSO control", "result": 10, "unit": "µg/mL"}, {"measurement": "IC90", "setting": "Septoria tritici (St); read-out: Concentration at 90% Inhibition St, Septoria tritici, growth inhibition vs 2% DMSO control at 48 hours", "result": "> 50", "unit": "µg/mL"}, {"measurement": "IC90", "setting": "[3]; read-out: Concentration at 90% Inhibition Fv, Fusarium virguliforme, growth inhibition at 48 hours vs 2% DMSO control", "result": 0.4, "unit": "µg/mL"}, {"measurement": "IC90", "setting": "[3]; read-out: Concentration at 90% Inhibition Fv, Fusarium virguliforme, growth inhibition vs 2% DMSO control at 48 hours", "result": 0.4, "unit": "µg/mL"}, {"measurement": "IC50", "setting": "fungal (fACC2); Table 2a", "result": "1 to 5", "unit": "nM"}, {"measurement": "IC50", "setting": "fungal (fACC2); Table 2b, additional results", "result": "1 to 5", "unit": "nM"}, {"measurement": "IC90", "setting": "Diplodia maydis (Dm); read-out: Concentration at 90% Inhibition Dm, Diplodia maydis, growth inhibition at 48 hours vs 2% DMSO control", "result": 0.4, "unit": "µg/mL"}, {"measurement": "IC90", "setting": "Diplodia maydis (Dm); read-out: Concentration at 90% Inhibition Dm, Diplodia maydis, growth inhibition vs 2% DMSO control at 48 hours", "result": 0.4, "unit": "µg/mL"}, {"measurement": "IC90", "setting": "[4]; read-out: Concentration at 90% Inhibition Cg, Collectotrichum graminicola, growth inhibition at 48 hours vs 2% DMSO control", "result": 0.4, "unit": "µg/mL"}, {"measurement": "IC90", "setting": "[4]; read-out: Concentration at 90% Inhibition Cg, Collectotrichum graminicola, growth inhibition vs 2% DMSO control at 48 hours", "result": 0.4, "unit": "µg/mL"}, {"measurement": "MIC", "setting": "C. parapsilosis; read-out: MIC, C. parapsilosis ATCC 22019, Table 3a, 3 replicates, MIC recorded at 48 h", "result": "1.1 to 2", "unit": "µg/mL"}, {"measurement": "MIC", "setting": "C. parapsilosis; read-out: MIC, C. parapsilosis ATCC 22019, Table 3b (additional results), 3 replicates, MIC recorded at 48 h", "result": "2.01 to 4", "unit": "µg/mL"}, {"measurement": "MIC", "setting": "C. albicans; read-out: MIC, C. albicans ATCC 90028, Table 3a, 3 replicates, MIC recorded at 48 h", "result": "1.1 to 2", "unit": "µg/mL"}, {"measurement": "MIC", "setting": "C. albicans; read-out: MIC, C. albicans ATCC 90028, Table 3b (additional results), 3 replicates, MIC recorded at 48 h", "result": "1.01 to 2", "unit": "µg/mL"}, {"measurement": "MIC", "setting": "C. krusei; read-out: MIC, C. krusei ATCC 6258, Table 3a, 3 replicates, MIC recorded at 48 h", "result": "0.25 to 1", "unit": "µg/mL"}, {"measurement": "MIC", "setting": "C. krusei; read-out: MIC, C. krusei ATCC 6258, Table 3b (additional results), 3 replicates, MIC recorded at 48 h", "result": "0.25 to 1", "unit": "µg/mL"}]}]}
